Key:
[1] = system: B. subtilis 168; test: fitness (endpoint OD595 vs no drug) (fraction); higher = more growth
In short: (§1)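 Plates with 384 wells were inoculated at OD595 0.01 using 30 µl of TSB, LB Lennox or CY, or 55 µl for S. pneumoniae. Incubation was at 37 °C, with OD595 measured every 30 min for 14 h. Fitness is the stationary-phase transition optical density over the robust mean of no-drug control wells, after first-reading background subtraction; it is capped at 1.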

[2] = system: S. pneumoniae D39V; test: as above
In short: as §1

O=C(O)[C@H]1/C(=C/CO)O[C@@H]2CC(=O)N21 [Clavulanic acid] + CO/N=C(\C(=O)N[C@@H]1C(=O)N2C(C(=O)O)=C(COC(N)=O)CS[C@H]12)c1ccco1 [Cefuroxime]
fitness, [1]
Conditions | first compound 1.5 µg/mL | first compound 3 µg/mL | first compound 6 µg/mL
partner 0.04875 µg/mL | 0.661 | 0.626 | 0.562
partner 0.0975 µg/mL | 0.651 | 0.607 | 0.542
partner 0.195 µg/mL | – | 0.345 | 0.359

fitness, [1], one replicate
Conditions | partner 0.39 µg/mL | partner 0.78 µg/mL | partner 1.562 µg/mL | partner 3.125 µg/mL | partner 6.25 µg/mL
first compound 1.5 µg/mL | 0.288 | 0.232 | 0.353 | 0.235 | 0.202
first compound 3 µg/mL | 0.0208 | 0.0871 | 0.319 | 0.276 | 0.238
first compound 6 µg/mL | 0.216 | 0.172 | 0.241 | 0.18 | 0.142

O=C(O)[C@H]1/C(=C/CO)O[C@@H]2CC(=O)N21 [Clavulanic acid] + CO[C@@H]1[C@@H](OC(N)=O)[C@@H](O)[C@H](Oc2ccc3c(O)c(NC(=O)c4ccc(O)c(CC=C(C)C)c4)c(=O)oc3c2C)OC1(C)C [Novobiocin]
fitness, [1]
Conditions | first compound 1.5 µg/mL | first compound 3 µg/mL | first compound 6 µg/mL
partner 0.0125 µg/mL | 0.932 | 0.895 | 0.759
partner 0.025 µg/mL | 0.935 | 0.89 | 0.727
partner 0.05 µg/mL | 0.951 | 0.914 | 0.798

fitness, [1], one replicate
Conditions | partner 0.1 µg/mL | partner 0.125 µg/mL | partner 0.2 µg/mL | partner 0.25 µg/mL | partner 0.5 µg/mL
first compound 1.5 µg/mL | 0.893 | 0.827 | 0.975 | 0.841 | 0.511
first compound 3 µg/mL | 0.937 | 0.815 | 0.989 | 0.774 | 0.385
first compound 6 µg/mL | 0.827 | 0.775 | 0.796 | 0.726 | 0.209

O=C(O)[C@H]1/C(=C/CO)O[C@@H]2CC(=O)N21 [Clavulanic acid] + CO[C@H]1/C=C/O[C@@]2(C)Oc3c(C)c(O)c4c(O)c(c(/C=N/N5CCN(C)CC5)c(O)c4c3C2=O)NC(=O)/C(C)=C\C=C\[C@H](C)[C@H](O)[C@@H](C)[C@@H](O)[C@@H](C)[C@H](OC(C)=O)[C@@H]1C [Rifampicin]
fitness, [2]
Conditions | first compound 0.5 µg/mL | first compound 1 µg/mL | first compound 2 µg/mL
partner 0.025 µg/mL | ≥ 1 | 0.919 | –
partner 0.1 µg/mL | – | 0.421 | 0.239

[2], partner 0.2 µg/mL, one replicate
Conditions | fitness
first compound 0.5 µg/mL | 0
first compound 1 µg/mL | 0
first compound 2 µg/mL | 0

O=C(O)[C@H]1/C(=C/CO)O[C@@H]2CC(=O)N21 [Clavulanic acid] + COc1cc(Cc2cnc(N)nc2N)cc(OC)c1OC [Trimethoprim]
fitness, [1], one replicate
Conditions | partner 0.1 µg/mL | partner 0.2 µg/mL | partner 0.4 µg/mL | partner 1 µg/mL | partner 2 µg/mL
first compound 1.5 µg/mL | 0.89 | 0.757 | 0.559 | 0.507 | 0.392
first compound 3 µg/mL | 0.853 | 0.693 | 0.537 | 0.455 | 0.388
first compound 6 µg/mL | 0.728 | 0.687 | 0.482 | 0.421 | 0.273

fitness, [1]
Conditions | first compound 1.5 µg/mL | first compound 3 µg/mL | first compound 6 µg/mL
partner 0.125 µg/mL | 0.647 | 0.618 | 0.55
partner 0.25 µg/mL | 0.511 | – | –
partner 0.5 µg/mL | 0.505 | 0.494 | 0.457

O=C(O)[C@H]1/C(=C/CO)O[C@@H]2CC(=O)N21 [Clavulanic acid] + C[C@@H](O)[C@H]1C(=O)N2C(C(=O)O)=C(SCCNC=N)C[C@H]12 [Imipenem]
fitness, [2]
Conditions | partner 0.005 µg/mL | partner 0.0065 µg/mL | partner 0.01 µg/mL | partner 0.013 µg/mL | partner 0.02 µg/mL | partner 0.026 µg/mL
first compound 0.5 µg/mL | 0.976 | 0.974 | 0.987 | 0.968 | 0.935 | 0.883
first compound 1 µg/mL | 0.887 | 0.92 | 0.899 | 0.891 | 0.888 | 0.892
first compound 2 µg/mL | 0.737 | 0.82 | 0.724 | 0.791 | 0.655 | 0.789

O=C(O)[C@H]1/C(=C/CO)O[C@@H]2CC(=O)N21 [Clavulanic acid] + C[C@H]1COc2c(N3CCN(C)CC3)c(F)cc3c(=O)c(C(=O)O)cn1c23 [Levofloxacin]
Conditions | fitness
[1], first compound 1.5 µg/mL, partner 0.002 µg/mL | 0.836
[1], first compound 1.5 µg/mL, partner 0.0039 µg/mL | 0.821
[1], first compound 1.5 µg/mL, partner 0.0312 µg/mL | 0.0412
[1], first compound 1.5 µg/mL, partner 0.0625 µg/mL | 0.0486
[1], first compound 1.5 µg/mL, partner 0.125 µg/mL | 0.0536
[1], first compound 3 µg/mL, partner 0.002 µg/mL | 0.829
[1], first compound 3 µg/mL, partner 0.0039 µg/mL | 0.81
[1], first compound 3 µg/mL, partner 0.0312 µg/mL | 0.0294
[1], first compound 3 µg/mL, partner 0.0625 µg/mL | 0.0351
[1], first compound 3 µg/mL, partner 0.125 µg/mL | 0.0411
[1], first compound 6 µg/mL, partner 0.002 µg/mL | 0.734
[1], first compound 6 µg/mL, partner 0.0039 µg/mL | 0.72
[1], first compound 6 µg/mL, partner 0.0312 µg/mL | 0.0384
[1], first compound 6 µg/mL, partner 0.0625 µg/mL | 0.0352
[1], first compound 6 µg/mL, partner 0.125 µg/mL | 0.0346
[2], first compound 0.5 µg/mL, partner 0.1725 µg/mL | 0.948
[2], first compound 0.5 µg/mL, partner 0.2 µg/mL | 0.914
[2], first compound 0.5 µg/mL, partner 0.345 µg/mL | 0.881
[2], first compound 0.5 µg/mL, partner 0.4 µg/mL | 0.681
[2], first compound 0.5 µg/mL, partner 0.69 µg/mL | 0.61
[2], first compound 0.5 µg/mL, partner 0.8 µg/mL | 0.134
[2], first compound 1 µg/mL, partner 0.1725 µg/mL | 0.927
[2], first compound 1 µg/mL, partner 0.2 µg/mL | 0.805
[2], first compound 1 µg/mL, partner 0.345 µg/mL | 0.842
[2], first compound 1 µg/mL, partner 0.4 µg/mL | 0.599
[2], first compound 1 µg/mL, partner 0.8 µg/mL | 0.242
[2], first compound 2 µg/mL, partner 0.1725 µg/mL | 0.841
[2], first compound 2 µg/mL, partner 0.2 µg/mL | 0.623
[2], first compound 2 µg/mL, partner 0.345 µg/mL | 0.735
[2], first compound 2 µg/mL, partner 0.4 µg/mL | 0.431
[2], first compound 2 µg/mL, partner 0.69 µg/mL | 0.423
[2], first compound 2 µg/mL, partner 0.8 µg/mL | 0.103

fitness, [1], one replicate
Conditions | first compound 1.5 µg/mL | first compound 3 µg/mL | first compound 6 µg/mL
partner 0.001 µg/mL | 0.908 | 0.852 | 0.776
partner 0.0078 µg/mL | 0.919 | 0.872 | 0.82

Reference: the supplement of paper PMC10627819
